According to ChEMBL document CHEMBL6103650, “Hybrid Molecules of Benzothiazole and Hydroxamic Acid as Dual-Acting Biofilm Inhibitors with Antibacterial Synergistic Effect against Pseudomonas aeruginosa Infections” (J Med Chem, 2025):
pIC50: −log10 of the molar value. Activity calls are given as the source filed them. The calls are words filed in the database; no cut-off is given here.

How the values were obtained:
[1] = Inhibition of quorum sensing system in Pseudomonas aeruginosa PAO1-gfp assessed as reduction in fluorescence intensity at 0.3125 to 10 uM measured upto 16 hrs by GFP reporter strain assay; settings: dose 0.3125-10 µM
Pseudomonas aeruginosa [2] = experiment: Antibiofilm activity against Pseudomonas aeruginosa PA14 assessed as inhibition of biofilm formation incubated for 24 hrs by crystal violet staining based analysis; format: functional, organism-based; settings: PA14, 24 h
Pseudomonas aeruginosa [3] = experiment: Antibiofilm activity against Pseudomonas aeruginosa PAO1 assessed as reduction in pFe(III) content incubated for 24 hrs; format: functional
Pseudomonas aeruginosa [4] = experiment: Antibiofilm activity against Pseudomonas aeruginosa PAO1 assessed as increase in pyochelin level incubated for 2 hrs by fluorescence based analysis; format: functional, organism-based; settings: dose 0.3125-10 µM
Pseudomonas aeruginosa [5] = experiment: Antibiofilm activity against Pseudomonas aeruginosa PAO1 assessed as inhibition of biofilm formation at 2.5 incubated for 24 hrs by crystal violet staining based analysis; format: functional
Pseudomonas aeruginosa [6] = experiment: Anti-motility activity against Pseudomonas aeruginosa PAO1 assessed as reduction in swimming motility incubated for 24 hrs; format: functional, organism-based; settings: dose 0.3125-10 µM
[7] = Toxicity in BALB/c mouse wound infection model assessed as lung damage measured for 9 days by H and E staining based analysis; format: tissue-based; settings: in vivo, 216 h, time 9 day
[8] = Hemolytic activity in mouse red blood cells at < 40 uM; format: toxicity, cell-based; settings: erythrocyte
Pseudomonas aeruginosa [9] = experiment: Antivirulence activity in Pseudomonas aeruginosa PAO1 assessed as reduction in pyocyanin at 10 uM production incubated for 24 hrs relative to control; format: functional; design: scale not given: the % may be the effect or the level left
Pseudomonas aeruginosa [10] = experiment: Antibiofilm activity against Pseudomonas aeruginosa PAO1 assessed as inhibition of biofilm formation incubated for 24 hrs by crystal violet staining based analysis; format: functional, organism-based
[11] = Toxicity in BALB/c mouse assessed as spleen damage by H and E staining based analysis; format: tissue-based; settings: in vivo
[12] = Inhibition of quorum sensing system in Pseudomonas aeruginosa PAO1-lasB-gfp assessed as reduction in fluorescence intensity at 0.3125 to 10 uM measured upto 16 hrs by GFP reporter strain assay; settings: dose 0.3125-10 µM
Pseudomonas aeruginosa [13] = experiment: Synergistic […] activity against Pseudomonas aeruginosa PAO1 assessed as fractional inhibitory concentration index measured for 20 hrs in presence of ciprofloxacin by microdilution checkboard assay; format: functional
[14] = Toxicity in BALB/c mouse wound infection model assessed as kidney damage measured for 9 days by H and E staining based analysis; format: tissue-based; settings: in vivo, 216 h, time 9 day
Pseudomonas aeruginosa [15] = experiment: Anti-motility activity against Pseudomonas aeruginosa PAO1 assessed as reduction in swarming motility at 10 uM incubated for 24 hrs relative to control; format: functional; design: scale not given: the % may be the effect or the level left
Pseudomonas aeruginosa [16] = experiment: Antivirulence activity in Pseudomonas aeruginosa PAO1 assessed as reduction in extracellular polysaccharides production at 10 uM incubated for 24 hrs relative to control; format: functional; design: scale not given: the % may be the effect or the level left
Pseudomonas aeruginosa [17] = experiment: Antivirulence activity in Pseudomonas aeruginosa PAO1 assessed as reduction in elastase production at 10 uM incubated for 24 hrs relative to control; format: functional; design: scale not given: the % may be the effect or the level left

**Q.** With `COc1ccc2nc(NCC(=O)NCCCCC(=O)NO)sc2c1` as the compound, how does the inhibition [1] read?
**A.** Its inhibition is “inactive”.

**Q.** What about the pIC50 (Pseudomonas aeruginosa [2]) of the same compound?
**A.** Its pIC50 is 5.84.

**Q.** And the Activity (Pseudomonas aeruginosa [3])?
**A.** Its Activity is 19.61.

**Q.** What about the Activity (Pseudomonas aeruginosa [4]) of the same compound?
**A.** Its Activity is “Dose-dependent-effect”.

**Q.** What about the “inhibition (INH)” value (Pseudomonas aeruginosa [5]) of the same compound?
**A.** The value was 65%.

**Q.** What about the Activity (Pseudomonas aeruginosa [6]) of the same compound?
**A.** Its Activity is “Dose-dependent-effect”.

**Q.** And the Activity [7]?
**A.** Its Activity is “Non-toxic”.

**Q.** And the Activity [8]?
**A.** Its Activity is “Non-toxic”.

**Q.** What about the Activity (Pseudomonas aeruginosa [9]) of the same compound?
**A.** The Activity was 42%.

**Q.** What about the Activity (Pseudomonas aeruginosa [10]) of the same compound?
**A.** The Activity was “Dose-dependent-effect”.

**Q.** And the pIC50 (Pseudomonas aeruginosa [10]; PAO1, 24 h)?
**A.** The pIC50 was 6.40.

**Q.** What about the Activity [11] of the same compound?
**A.** Its Activity is “Non-toxic”.

**Q.** What about the inhibition [12] of the same compound?
**A.** Its inhibition is “Active”.

**Q.** And the “fractional inhibitory concentration index (FICI)” value (Pseudomonas aeruginosa [13])?
**A.** Its value is 0.25.

**Q.** And the Activity [14]?
**A.** Its Activity is “Non-toxic”.

**Q.** What about the Activity (Pseudomonas aeruginosa [15]) of the same compound?
**A.** The Activity was 84%.

**Q.** What about the Activity (Pseudomonas aeruginosa [16]) of the same compound?
**A.** The Activity was 58%.

**Q.** What about the Activity (Pseudomonas aeruginosa [17]) of the same compound?
**A.** The Activity was 43%.
